Data on 3 compounds can be found in ChEMBL document CHEMBL3244232, “Steric effects of substituents on phenethylamine hallucinogens. 3,4-(Methylenedioxy)amphetamine analogues alkylated on the dioxole ring” (J Med Chem, 1979).

Activity calls are given as the source filed them. No cut-off for these calls is given here.

In general, logP refers to a log measure of how a compound divides between an organic and an aqueous phase. Read a low logP as a more hydrophilic compound.

A short description of data set [1]: Octanol-water partition coefficient, log P of the compound. It is filed as physicochemical.
Data set [2] relates to Mus musculus. Kind of data set: Induction of hyperactivity in Swiss Webster mouse assessed as sniffing at 0.025 to 0.3 mmol/kg, ip up to 90 mins. The format is functional, organism-based.
Data set [3] has as its system Mus musculus. Kind of data set: Induction of hyperactivity in Swiss Webster mouse assessed as pilomotor erection at 0.025 to 0.3 mmol/kg, ip up to 90 mins. The format is functional, organism-based.
The subject of data set [4] is Mus musculus. The data set can be described thus: Induction of spontaneous activity in Swiss Webster mouse assessed as spontaneous activity counts at 0.025 mmol/kg, ip measured over 90 mins. The format is functional.
Data set [5] has as its system Mus musculus. The data set can be described thus: Induction of hyperactivity in Swiss Webster mouse assessed as exopthalmia at 0.025 to 0.3 mmol/kg, ip up to 90 mins. It is filed as functional, organism-based.
Data set [6] concerns Mus musculus. The data set can be described thus: Induction of hyperactivity in Swiss Webster mouse assessed as salivation at 0.025 to 0.3 mmol/kg, ip up to 90 mins. It is filed as functional, organism-based.
Data set [7] deals with Mus musculus. Kind of data set: Induction of hyperactivity in Swiss Webster mouse assessed as exploratory behavior at 0.025 to 0.3 mmol/kg, ip up to 90 mins. It is filed as functional, organism-based.
The test system of data set [8] is Mus musculus. The data set can be described thus: Induction of spontaneous activity in Swiss Webster mouse assessed as spontaneous activity counts at 0.075 mmol/kg, ip measured over 90 mins. It is filed as functional.
In data set [9] the test system is Mus musculus. Kind of data set: Induction of hyperactivity in Swiss Webster mouse assessed as grooming at 0.025 to 0.3 mmol/kg, ip up to 90 mins. The format is functional, organism-based.
Data set [10] concerns Mus musculus. The data set can be described thus: Induction of spontaneous activity in Swiss Webster mouse assessed as spontaneous activity counts at 0.225 mmol/kg, ip measured over 90 mins. The format is functional.
For data set [11], the system named is Mus musculus. Kind of data set: Induction of hyperactivity in Swiss Webster mouse assessed as exploratory behavior at <0.3 mmol/kg, ip up to 90 mins. It is filed as functional, organism-based.
The nature of data set [12]: Chemical stability of the compound at 0.1 M at pH 5.3 at 37 degC after 24 hrs by 1H NMR spectroscopy. It is filed as physicochemical. To be noted: buffer, pH 5.3, 24 h.
Data set [13] relates to Mus musculus. The data set can be described thus: Toxicity in Swiss Webster mouse assessed as mortality at 0.675 mmol/kg, ip after 5 mins. The format is organism-based. To be noted: in vivo.
Data set [14] relates to Mus musculus. Kind of data set: Toxicity in Swiss Webster mouse assessed as clonic convulsions at 0.675 mmol/kg, ip after 8 to 10 mins. It is filed as organism-based. To be noted: in vivo.
Data set [15] deals with Mus musculus. The data set can be described thus: Toxicity in Swiss Webster mouse assessed as depression at <0.3 mmol/kg, ip up to 90 mins. The format is organism-based. To be noted: in vivo, 1.5 h.
The test system of data set [16] is Mus musculus. The data set can be described thus: Induction of hyperactivity in Swiss Webster mouse assessed as piloerection at <0.3 mmol/kg, ip up to 90 mins. It is filed as functional, organism-based.
In data set [17] the test system is Mus musculus. The data set can be described thus: Effect on Swiss Webster mouse assessed as sleeping at <0.3 mmol/kg, ip up to 90 mins. To be noted: in vivo, 1.5 h. It is filed as ADME, organism-based.
Data set [18] has as its system Mus musculus. Kind of data set: Induction of hyperactivity in Swiss Webster mouse assessed as grooming at <0.3 mmol/kg, ip up to 90 mins. The format is functional, organism-based.
Data set [19] has as its system Mus musculus. The data set can be described thus: Toxicity in Swiss Webster mouse assessed as recovery at 0.675 mmol/kg, ip after 30 mins. It is filed as organism-based. To be noted: in vivo, 0.5 h.
The test system of data set [20] is Mus musculus. Kind of data set: Induction of spontaneous activity in Swiss Webster mouse assessed as spontaneous activity counts at 0.30 mmol/kg, ip measured over 90 mins. It is filed as functional.
The test system of data set [21] is Mus musculus. The data set can be described thus: Toxicity in Swiss Webster mouse assessed as clonic convulsions at 0.3 mmol/kg, ip up to 20 mins. It is filed as organism-based. To be noted: in vivo.
For data set [22], the system named is Mus musculus. Kind of data set: Induction of hyperactivity in Swiss Webster mouse assessed as exopthalmia at <0.3 mmol/kg, ip up to 90 mins. It is filed as functional, organism-based.
Data set [23] in a line: Toxicity in ip dosed Swiss Webster mouse after 5 mins. It is filed as organism-based. To be noted: in vivo.
Data set [24] relates to Mus musculus. The data set can be described thus: Effect on Swiss Webster mouse assessed as sleeping at 0.675 mmol/kg, ip after 1 hr. The format is ADME, organism-based. To be noted: in vivo.
In data set [25] the test system is Mus musculus. The data set can be described thus: Toxicity in Swiss Webster mouse assessed as mortality at 0.338 mmol/kg, ip after 5 mins. It is filed as organism-based. To be noted: in vivo.
The subject of data set [26] is Mus musculus. Kind of data set: Toxicity in Swiss Webster mouse assessed as occasional tremor at 0.3 mmol/kg, ip up to 20 mins. The format is organism-based. To be noted: in vivo.
Data set [27] has as its system Mus musculus. Kind of data set: Toxicity in Swiss Webster mouse assessed as tremor at 0.675 mmol/kg, ip after 8 to 10 mins. It is filed as organism-based. To be noted: in vivo.
For data set [28], the system named is Mus musculus. The data set can be described thus: Induction of hyperactivity in Swiss Webster mouse assessed as sniffing at <0.3 mmol/kg, ip up to 90 mins. The format is functional, organism-based.
Data set [29] deals with Mus musculus. The data set can be described thus: Effect on Swiss Webster mouse assessed as sleeping at 0.3 mmol/kg, ip after 20 mins. It is filed as ADME, organism-based. To be noted: in vivo.
The test system of data set [30] is Mus musculus. Kind of data set: Induction of hyperactivity in Swiss Webster mouse assessed as salivation at <0.3 mmol/kg, ip up to 90 mins. It is filed as functional, organism-based.
Data set [31] deals with Mus musculus. The data set can be described thus: Toxicity in Swiss Webster mouse assessed as ataxia at 0.675 mmol/kg, ip after 2 to 3 mins. To be noted: in vivo. The format is organism-based.
Data set [32] relates to Mus musculus. Kind of data set: Induction of hyperactivity in Swiss Webster mouse assessed as grooming at 0.225 to 0.3 mmol/kg, ip up to 90 mins. The format is functional, organism-based.
Data set [33] relates to Mus musculus. The data set can be described thus: Induction of hyperactivity in Swiss Webster mouse assessed as exopthalmia at 0.225 to 0.3 mmol/kg, ip up to 90 mins. The format is functional, organism-based.
The test system of data set [34] is Mus musculus. The data set can be described thus: Toxicity in Swiss Webster mouse assessed as symmetric clonic convulsions with vocalization at 0.675 mmol/kg, ip after 2 to 3 mins. The format is organism-based. To be noted: in vivo.
Data set [35] concerns Mus musculus. The data set can be described thus: Effect on Swiss Webster mouse assessed as sleeping at 0.025 to 0.3 mmol/kg, ip. It is filed as ADME, organism-based. To be noted: in vivo.
The test system of data set [36] is Mus musculus. Kind of data set: Induction of hyperactivity in Swiss Webster mouse assessed as salivation at 0.225 to 0.3 mmol/kg, ip up to 90 mins. It is filed as functional, organism-based.
Data set [37] has as its system Mus musculus. Kind of data set: Toxicity in Swiss Webster mouse assessed as tremor at 0.675 mmol/kg, ip after 2 to 3 mins. To be noted: in vivo. It is filed as organism-based.

In the case of `CC(N)Cc1ccc2c(c1)OCO2` (centres undefined) [TENAMFETAMINE], the logP in data set [1] was 1.64. Further, the outcome in the data set with Mus musculus [2], in the data set with Mus musculus [3], in the data set with Mus musculus [5], with Mus musculus [6], with Mus musculus [7] and in the data set on Mus musculus [9] was Active. Moreover, the Activity in the data set with Mus musculus [4] is 64 min⁻¹; in the data set on Mus musculus [8] it was 276 min⁻¹; in the data set on Mus musculus [10], 105 min⁻¹.
In the case of `CC(N)Cc1ccc2c(c1)OC(C)(C)O2` (centres undefined), the result in the data set on Mus musculus [11], in the data set on Mus musculus [16], with Mus musculus [18], in the data set with Mus musculus [22], in the data set with Mus musculus [28] and in the data set with Mus musculus [30] was inactive. In addition, in data set [12], the Stability entry is “Stable”. Besides, the Activity result in the data set on Mus musculus [13] was “Toxic”; with Mus musculus [14], “Toxic”; with Mus musculus [15], “Toxic”; with Mus musculus [17] it was “Non-toxic”; in the data set with Mus musculus [19], “Non-toxic”; in the data set with Mus musculus [20], 33 min⁻¹. The Activity result with Mus musculus [21] is “Toxic”; in the data set on Mus musculus [4], 30 min⁻¹; in the data set with Mus musculus [8], 27 min⁻¹; with Mus musculus [24], “Non-toxic”; in the data set on Mus musculus [25] it was “Toxic”; in the data set with Mus musculus [26], “Toxic”. The Activity in the data set with Mus musculus [10] was 17 min⁻¹; in the data set with Mus musculus [27], “Toxic”; with Mus musculus [29], “Non-toxic”. In data set [1], this compound returned a log partition coefficient (logP) of 2.6. Moreover, the MTD at 5 min in data set [23] stood at 338 µmol/kg.
`CC(N)Cc1ccc2c(c1)OC(C)O2` (centres undefined): the Activity result with Mus musculus [31] was “Toxic”; in the data set on Mus musculus [13], “Toxic”; with Mus musculus [20] it was 192 min⁻¹; with Mus musculus [4], 39 min⁻¹; with Mus musculus [34], “Toxic”; with Mus musculus [8] it was 25 min⁻¹. Moreover, the Activity in the data set on Mus musculus [10] was 94 min⁻¹; in the data set on Mus musculus [35] it was “Non-toxic”; in the data set with Mus musculus [37], “Toxic”. Besides, the outcome with Mus musculus [32], with Mus musculus [33], with Mus musculus [2], in the data set with Mus musculus [3], in the data set on Mus musculus [5] and in the data set with Mus musculus [6] was Active. In addition, the outcome in the data set on Mus musculus [7], in the data set with Mus musculus [9] and in the data set on Mus musculus [36] was Active. This compound also yielded a lipophilicity (logP) in data set [1] of 2.1. Also, the MTD at 5 min in data set [23] worked out at 300 µmol/kg.
